Laboratory results reported in US12492184B2, “Heteroaryl compounds, preparation methods and uses thereof” (InventisBio Co., Ltd., priority 2020, dated 2025).
pIC50: −log10 of the molar value.

tested on: HEK-Blue IL23 Reporter; assay: HEK-Blue IL-23 STAT3 Reporter Assay; assay type: cell-based, human; settings: HEK-Blue IL23 cells stimulated with IL-23 overnight; SEAP read with QUANTI-Blue at OD655
Protocol: HEK-Blue IL23 cells (InvivoGen catalog #HKB-IL23) are designed for the detection of bioactive IL-23 by monitoring the activation of the STAT3 pathway. They were generated by stably introducing the genes for the human IL-23 receptor, STAT3, and the SEAP (secreted embryonic alkaline phosphatase) reporter gene into human HEK293 cell line.
Briefly, around 50,000 cells in DMEM medium supplemented with 10% heat inactivated FBS (˜180 ul) were seeded into each well and incubate for 48 hours at 37° C. with 5% CO2 in air. On day 3, one microliter of compound and 20 ul IL-23 were transferred to the assay plate respectively. The plate was left in the 37° C. incubator overnight. Two microliter of cell supernatant was transferred to a 384-well plate, and 18 ul of resuspended QUANTI-Blue solution was added to each well. SLAP levels were determined using Tecan Spark at OD655.
Cells with no IL23 added were used as Low control. Cells stimulated with IL23 were used as High control. Inhibition rate was calculated with the formula of % inhibition=100*(High control−Treated Well)/(High Control−Low control). IL-23 reporter assay inhibition IC50 was calculated with the equation of Y=Bottom+(Top-Bottom)/(1+10^((Log IC50−X)*HillSlope)).

Compound	pIC50
[2H]C([2H])([2H])NC(=O)c1nnc(NC(=O)[C@H]2CC23CC3)cc1Nc1ncccc1S1(=O)=NCCC1 (single isomer, unassigned) [Compound 94]	6.86
[2H]C([2H])([2H])NC(=O)c1nnc(NC(=O)[C@H]2CC23CC3)cc1Nc1ncccc1S(C)(=O)=NC (single isomer, unassigned) [Compound 97]	8.85

same assay, conditions: Homo sapiens, HEK-Blue IL-23, HEK-Blue IL23 cells stimulated with IL-23 overnight; SEAP read with QUANTI-Blue at OD655

Compound	pIC50
[2H]C([2H])([2H])NC(=O)c1nnc(NC(=O)C2CC2)cc1Nc1ncc(OC(F)(F)F)cc1S(C)(=O)=O (single isomer, unassigned) [Compound 53]	8.72
[2H]C([2H])([2H])NC(=O)c1nnc(NC(=O)C2CC2)cc1Nc1ncc(SC(F)(F)F)cc1S(C)(=O)=O (single isomer, unassigned) [Compound 54]	8.82
[2H]C([2H])([2H])NC(=O)c1cnc(NC(=O)C2CC2)cc1Nc1ncc(F)cc1S(C)(=O)=O (single isomer, unassigned) [Compound 55]	8.82
[2H]C([2H])([2H])NC(=O)c1nnc(NC(=O)C2CC2)cc1Nc1ncc(C(F)F)cc1S(C)(=O)=O (single isomer, unassigned) [Compound 58]	8.57
[2H]C([2H])([2H])NC(=O)c1nnc(NC(=O)C2CC2)cc1Nc1ncc(OCCOC)cc1S(C)(=O)=O (single isomer, unassigned) [Compound 59]	9.40
[2H]C([2H])([2H])NC(=O)c1nnc(NC(=O)C2CC2)cc1Nc1ncc(OC(F)F)cc1S(C)(=O)=O (single isomer, unassigned) [Compound 60]	8.77
[2H]C([2H])([2H])NC(=O)c1nnc(NC(=O)C2CC23CC3)cc1Nc1ncc(OC)cc1S(C)(=O)=O (centres unmarked) [Compound 1]	8.46
[2H]C([2H])([2H])NC(=O)c1nnc(NC(=O)[C@@H]2CC23CC3)cc1Nc1ncc(OC)cc1S(C)(=O)=O [Compound 2]	8.37
[2H]C([2H])([2H])NC(=O)c1nnc(NC(=O)C2CC23CC3)cc1Nc1ncc(F)cc1S(C)(=O)=O (centres unmarked) [Compound 3]	8.15
[2H]C([2H])([2H])NC(=O)c1nnc(NC(=O)C2CC23CC3)cc1Nc1nccc(C)c1S(C)(=O)=O (centres unmarked) [Compound 4]	7.41
[2H]C([2H])([2H])NC(=O)c1nnc(NC(=O)[C@H]2CC23CC3)cc1Nc1ncc(C2CC2)cc1S(C)(=O)=O [Compound 5]	8.77
[2H]C([2H])([2H])NC(=O)c1nnc(NC(=O)C2CC23CC3)cc1Nc1nccc(CO)c1S(C)(=O)=O (centres unmarked) [Compound 6]	7.73
[2H]C([2H])([2H])NC(=O)c1nnc(NC(=O)C2CC23CC3)cc1Nc1ncccc1S(C)(=N)=O (centres unmarked) [Compound 7]	7.84
[2H]C([2H])([2H])NC(=O)c1nnc(NC(=O)C2CC23CC3)cc1Nc1nccc2c1S(C)(=O)=NC2 (centres unmarked) [Compound 8]	8.59
[2H]C([2H])([2H])NC(=O)c1nnc(NC(=O)[C@H]2CC23CC3)cc1Nc1ccc(Cl)cc1S(C)(=O)=O [Compound 9]	7.29
[2H]C([2H])([2H])NC(=O)c1nnc(NC(=O)[C@H]2CC23CC3)cc1Nc1cc(Cl)ccc1S(C)(=O)=O [Compound 10]	5.74
[2H]C([2H])([2H])NC(=O)c1nnc(NC(=O)C2CC23CC3)nc1Nc1ccccc1S(C)(=O)=O (centres unmarked) [Compound 11]	6.92
CS(=O)(=O)c1cccnc1Nc1cc(NC(=O)C2CC23CC3)ncc1C(=O)C1CC1 (centres unmarked) [Compound 12]	6.85
[2H]C([2H])([2H])NC(=O)c1nnc(NC(=O)[C@H]2CC23CC3)cc1Nc1ccncc1S(C)(=O)=O [Compound 13]	6.46

Compound	pIC50
[2H]C([2H])([2H])NC(=O)c1nnc(NC(=O)C2CC2)cc1Nc1ncc(OC)cc1S(C)(=O)=O [Compound 14]	8.89
[2H]C([2H])([2H])NC(=O)c1nnc(NC(=O)C2CCC2)cc1Nc1ncc(OC)cc1S(C)(=O)=O [Compound 15]	8.04
[2H]C([2H])([2H])NC(=O)c1nnc(NC(=O)C23CC(C2)C3)cc1Nc1ncc(OC)cc1S(C)(=O)=O [Compound 16]	6.74
[2H]C([2H])([2H])NC(=O)c1nnc(NC(=O)C2CCCC2)cc1Nc1ncc(OC)cc1S(C)(=O)=O [Compound 17]	7.86
[2H]C([2H])([2H])NC(=O)c1nnc(NC(=O)C(C)C)cc1Nc1ncc(OC)cc1S(C)(=O)=O [Compound 18]	7.41
[2H]C([2H])([2H])NC(=O)c1nnc(NC(=O)OC)cc1Nc1ncc(OC)cc1S(C)(=O)=O [Compound 19]	7.68
[2H]C([2H])([2H])NC(=O)c1nnc(NC23CC(C2)C3)cc1Nc1ncccc1S(C)(=O)=O [Compound 20]	6.71
[2H]C([2H])([2H])NC(=O)c1nnc(NC(=O)NC2CC2)cc1Nc1ncccc1S(C)(=O)=O [Compound 21]	8.05
[2H]C([2H])([2H])NC(=O)c1nnc(NC2CC2)cc1Nc1ncccc1S(C)(=O)=O [Compound 22]	6.98
COC(=O)Nc1cc(Nc2ncccc2S(C)(=O)=O)c(C(N)=O)nn1 [Compound 23]	7.23
[2H]C([2H])([2H])NC(=O)c1nnc(NC(=O)OC)cc1Nc1ncccc1S(C)(=O)=O [Compound 24]	7.60
[2H]C([2H])([2H])NC(=O)c1nnc(-c2cc(C)n[nH]2)cc1Nc1ncccc1S(C)(=O)=O [Compound 25]	≤ 6.00
[2H]C([2H])([2H])NC(=O)c1nnc(NC(=O)[C@H]2CC23CC3)cc1Nc1ncc(OC)cc1S(C)(=O)=O [Compound 26]	8.64
[2H]C([2H])([2H])NC(=O)c1nnc(NC(=O)C2CC2(C)C)cc1Nc1ncc(OC)cc1S(C)(=O)=O (centres unmarked) [Compound 27]	7.62
[2H]C([2H])([2H])NC(=O)c1nnc(NC(=O)C2(C)CC2)cc1Nc1ncc(OC)cc1S(C)(=O)=O [Compound 28]	7.45
[2H]C([2H])([2H])NC(=O)c1nnc(NC(=O)c2ccc(F)cc2)cc1Nc1ncc(OC)cc1S(C)(=O)=O [Compound 29]	6.46
[2H]C([2H])([2H])NC(=O)c1nnc(NC(=O)c2ccn(C)n2)cc1Nc1ncc(OC)cc1S(C)(=O)=O [Compound 30]	6.36
[2H]C([2H])([2H])NC(=O)c1nnc(NC(=O)[C@H]2CC23CC3)cc1Nc1ncc(C(F)(F)F)cc1S(C)(=O)=O [Compound 32]	8.28
[2H]C([2H])([2H])NC(=O)c1nnc(NC(=O)[C@H]2CC23CC3)cc1Nc1ncc(C)cc1S(C)(=O)=O [Compound 33]	9.05

Compound	pIC50
[2H]C([2H])([2H])NC(=O)c1nnc(NC(=O)[C@H]2CC23CC3)cc1Nc1nccc(OC)c1S(C)(=O)=O [Compound 34]	6.26
[2H]C([2H])([2H])NC(=O)c1nnc(NC(=O)C2(F)CC2)cc1Nc1ncc(OC)cc1S(C)(=O)=O [Compound 35]	7.96
[2H]C([2H])([2H])NC(=O)c1nnc(NC(=O)C2CC(OC)C2)cc1Nc1ncc(OC)cc1S(C)(=O)=O (centres unmarked) [Compound 36]	8.25
[2H]C([2H])([2H])NC(=O)c1nnc(NC(=O)[C@H]2[C@@H]3COC[C@@H]32)cc1Nc1ncc(OC)cc1S(C)(=O)=O [Compound 37]	7.99
[2H]C([2H])([2H])NC(=O)c1nnc(NC(=O)[C@H]2[C@@H]3COC[C@@H]32)cc1Nc1ncccc1S(C)(=O)=O [Compound 38]	7.82
[2H]C([2H])([2H])NC(=O)c1nnc(NC(=O)[C@H]2CC23CC3)cc1Nc1nc2c(cc1S(C)(=O)=O)CN(C(=O)OCc1ccccc1)CC2 [Compound 39]	8.49
[2H]C([2H])([2H])NC(=O)c1nnc(NC(=O)[C@H]2CC23CC3)cc1Nc1nc2c(cc1S(C)(=O)=O)CNCC2 [Compound 40]	7.26
[2H]C([2H])([2H])NC(=O)c1nnc(NC(=O)[C@H]2CC23CC3)cc1Nc1nc2c(cc1S(C)(=O)=O)CN(C)CC2 [Compound 41]	7.90
[2H]C([2H])([2H])NC(=O)c1nnc(NC(=O)[C@H]2CC23CC3)cc1Nc1ncc(OCC)cc1S(C)(=O)=O [Compound 42]	9.24
[2H]C([2H])([2H])NC(=O)c1nnc(NC(=O)[C@H]2CC23CC3)cc1Nc1ncc(OC(C)C)cc1S(C)(=O)=O [Compound 43]	9.47
[2H]C([2H])([2H])NC(=O)c1nnc(NC(=O)[C@H]2CC23CC3)cc1Nc1ncc(CC)cc1S(C)(=O)=O [Compound 44]	9.00
[2H]C([2H])([2H])NC(=O)c1nnc(NC(=O)C2CC2)cc1Nc1ncc(F)cc1S(C)(=O)=O [Compound 45]	8.82
[2H]C([2H])([2H])NC(=O)c1nnc(NC(=O)C2CC2)cc1Nc1ncc(C2CC2)cc1S(C)(=O)=O [Compound 46]	9.70
[2H]C([2H])([2H])NC(=O)c1nnc(NC(=O)C2CC2)cc1Nc1ncc(C(F)(F)F)cc1S(C)(=O)=O [Compound 47]	8.85
[2H]C([2H])([2H])NC(=O)c1nnc(NC(=O)C2CC2)cc1Nc1ncc(C)cc1S(C)(=O)=O [Compound 48]	9.34
[2H]C([2H])([2H])NC(=O)c1nnc(C(F)F)cc1Nc1ncccc1S(C)(=O)=O [Compound 49]	< 6.00
[2H]C([2H])([2H])NC(=O)c1nnc(Nc2cnc(C(C)(C)O)nc2)cc1Nc1ncc(OC)cc1S(C)(=O)=O [Compound 50]	8.03
[2H]C([2H])([2H])NC(=O)c1nnc(NC(=O)NC2CC2)cc1Nc1ncc(OC)cc1S(C)(=O)=O [Compound 51]	8.21
[2H]C([2H])([2H])NC(=O)c1nnc(NC(=O)C2CC2)cc1Nc1ncc(Cl)cc1S(C)(=O)=O [Compound 52]	8.60
